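Growth conditions: 96-well plates. Treatment: test compound, 48 hours, 5 concentrations. Analysis: linear interpolation between bracketing concentrations; unreached endpoints set to highest concentration. Abbreviation: GI50, concentration required for 50% inhibition of growth.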 Calls of active or inactive are those of the source. No stated cut-off is given here; in the data, active = GI50 up to about 1.1 µM and inactive = higher.
Key:
Test in all cases: growth of human tumour cells (NCI), 48 h
M14 = system: M14
IGROV-1 = system: IGROV-1
HL-60 = system: HL-60
NCI-H522 = system: NCI-H522
UACC-257 = system: UACC-257
HOP-62 = system: HOP-62
MDA-MB-231 = system: MDA-MB-231
MOLT-4 = system: MOLT-4
HCC 2998 = system: HCC 2998
SF-539 = system: SF-539
NCI-H23 = system: NCI-H23
SNB-75 = system: SNB-75
TK-10 = system: TK-10
OVCAR-8 = system: OVCAR-8
SF-268 = system: SF-268
CCRF-CEM = system: CCRF-CEM
HT-29 = system: HT-29
EKVX = system: EKVX
T47D = system: T47D
NCI/ADR-RES = system: NCI/ADR-RES

Measured: GI50

Oc1c(CN2CCCC2)ccc2cccnc12
inactive: M14 15.7 µM | IGROV-1 18.8 µM | HL-60 4.94 µM | NCI-H522 27.6 µM | UACC-257 29.3 µM | HOP-62 13.3 µM | MDA-MB-231 51.3 µM | MOLT-4 20.1 µM | HCC 2998 > 47.4 µM | SF-539 24 µM | NCI-H23 27 µM | SNB-75 37.5 µM | TK-10 12.4 µM | OVCAR-8 11 µM | SF-268 24 µM | CCRF-CEM 8.77 µM | HT-29 27.5 µM | EKVX 12.3 µM | T47D 23 µM | NCI/ADR-RES 2.38 µM

Cn1c2ccccc2c(=NNc2ccc(S(=O)(=O)N=C(N)N)cc2)c2ccccc21
inactive: M14 16.3 µM | IGROV-1 11.7 µM | HL-60 14.1 µM | NCI-H522 3.82 µM | UACC-257 15.5 µM | HOP-62 11.8 µM | MDA-MB-231 11.4 µM | MOLT-4 3.31 µM | HCC 2998 6.25 µM | SF-539 13.8 µM | NCI-H23 9.64 µM | SNB-75 12.2 µM | TK-10 7.6 µM | OVCAR-8 6.03 µM | SF-268 5.75 µM | CCRF-CEM 6.68 µM | HT-29 3.8 µM | EKVX 5.57 µM | T47D 6.35 µM | NCI/ADR-RES 21.8 µM

O=c1c(C(c2ccc(/C=C/c3ccccc3)cc2)c2c(O)oc3cc(O)ccc3c2=O)c(O)oc2cc(O)ccc12
inactive: M14 > 100 µM | IGROV-1 > 100 µM | HL-60 27.5 µM | NCI-H522 52 µM | UACC-257 > 100 µM | HOP-62 > 100 µM | MDA-MB-231 > 100 µM | MOLT-4 20.9 µM | HCC 2998 > 100 µM | SF-539 > 100 µM | NCI-H23 > 100 µM | SNB-75 29 µM | TK-10 > 100 µM | OVCAR-8 98.6 µM | SF-268 33.7 µM | CCRF-CEM 37.6 µM | HT-29 > 100 µM | EKVX > 100 µM | T47D 52.6 µM | NCI/ADR-RES > 100 µM

Cc1c(C)c(C)c(CSC(=N)N)c(C)c1C
inactive: M14 10.8 µM | IGROV-1 33.6 µM | HL-60 8.57 µM | NCI-H522 16.3 µM | UACC-257 14.2 µM | HOP-62 15.5 µM | MDA-MB-231 14.1 µM | MOLT-4 15.5 µM | HCC 2998 14.7 µM | SF-539 15.7 µM | NCI-H23 16.5 µM | SNB-75 15.6 µM | TK-10 14.8 µM | OVCAR-8 24.1 µM | SF-268 18.3 µM | CCRF-CEM 15.5 µM | HT-29 12.5 µM | EKVX 14.8 µM | T47D 14.6 µM | NCI/ADR-RES 15.2 µM

CCCCc1ccc(Nc2ncc3ncn(COCCO)c3n2)cc1
inactive: M14 21.5 µM | IGROV-1 28.6 µM | HL-60 23.8 µM | NCI-H522 34.1 µM | UACC-257 27.9 µM | HOP-62 26.6 µM | MDA-MB-231 18.9 µM | MOLT-4 21.6 µM | HCC 2998 20.3 µM | SF-539 29.3 µM | NCI-H23 27.7 µM | SNB-75 24.8 µM | TK-10 37.8 µM | OVCAR-8 29 µM | SF-268 40.9 µM | CCRF-CEM 20.8 µM | HT-29 21.8 µM | EKVX 22.9 µM | T47D 28.4 µM | NCI/ADR-RES 29 µM

CCOc1ccnc2c(OC)c(C)c3nc4ccccc4nc3c12
inactive: M14 > 100 µM | IGROV-1 52.1 µM | HL-60 > 100 µM | NCI-H522 > 100 µM | UACC-257 > 100 µM | HOP-62 > 100 µM | MDA-MB-231 > 100 µM | MOLT-4 82.6 µM | HCC 2998 > 100 µM | SF-539 > 100 µM | NCI-H23 > 100 µM | SNB-75 25.3 µM | TK-10 > 100 µM | OVCAR-8 57.4 µM | SF-268 > 100 µM | CCRF-CEM > 100 µM | HT-29 72.8 µM | EKVX > 100 µM | T47D 3.31 µM | NCI/ADR-RES 71.1 µM

c1ccc2c(c1)cc1ccc3cccc4ccc2c1c34
inactive: M14 > 100 µM | IGROV-1 > 100 µM | HL-60 > 100 µM | NCI-H522 > 100 µM | UACC-257 > 100 µM | HOP-62 > 100 µM | MDA-MB-231 > 100 µM | MOLT-4 > 100 µM | HCC 2998 > 100 µM | SF-539 > 100 µM | NCI-H23 > 100 µM | SNB-75 > 100 µM | TK-10 > 100 µM | OVCAR-8 > 100 µM | SF-268 > 100 µM | CCRF-CEM > 100 µM | HT-29 > 100 µM | EKVX 9.04 µM | T47D > 100 µM | NCI/ADR-RES > 100 µM

Reference: ChEMBL document CHEMBL1201862, “PubChem BioAssay data set” (2004)
